Values quoted from earlier work in patent US7488755B2, “Derivatives of glycinergic R(+)-2-amino-3-hydroxypropanoic acid” (Prestwick Pharmaceuticals, Inc., priority 2002, dated 2009).

Assays:
schizophrenia patients = details: 2 g/day, double-blind clinical trial, also in patients with little response to conventional antipsychotics
schizophrenic patients = details: very high oral doses (>30 g/day)

## N[C@H](CO)C(=O)O [D-serine]
Schizophrenia patients
  efficacy in the treatment of schizophrenia: effective in the treatment of schizophrenia

## NCC(=O)O [glycine]
Schizophrenic patients
  effect on negative symptoms in schizophrenic patients: improvement in the negative symptoms
